These results are taken from patent US20180353501A1 (Arvinas, Inc., priority 2017, published 2018).

The target in one experiment is T1, endogenous p38δ (Homo sapiens, UniProt O15264+P40337).
T1 construct: GST-VBC was immobilized on glutathione sepharose beads and incubated with MDA-MB-231 whole cell lysate (WCL); endogenous in cells; host or cells: MDA-MB-231 whole cell lysate (p38δ); GST-VBC bait made in E. coli BL21(DE3)
The experiment can be described thus: Ternary complex pull-down from MDA-MB-231 whole cell lysate with GST-VBC bait. It is filed as binding. From the text:
FIGS. 15A, 15B, and 15C. Differential p38δ:PROTAC:VHL ternary complex affinities result in distinct cellular ubiquitination outcomes. (A) Both exemplary compound 50 and 46 pull-down p38δ in vitro, however compound 46 maintains ternary complex at lower concentrations. As in FIG. 14A, GST-tagged VBC was used as a bait to trap recombinant p38δ in the presence of vehicle (DMSO) or the indicated concentrations of compound 50 or 46. The rightmost lane represents a 1:25 dilution of initial input protein used in each pull-down. […] GST-VBC was immobilized on glutathione sepharose beads and incubated with MDA-MB-231 whole cell lysate (WCL) in the presence of vehicle (DMSO) or the indicated concentrations of compound 50 or 46. Beads were washed and “trapped” proteins (i.e. those that engage in a ternary complex) were eluted with SDS sample buffer and separated by SDS-PAGE. Samples were assessed by western blot and CUL2 and α-tubulin serve as positive and negative GST-VBC immunoprecipitation controls, respectively. […] FLAGimmunoprecipitated lysates were separated by SDS-PAGE and assessed via western blots detecting HA (Ub). […]
(§1) To further assess these findings, a more biologically-relevant context for measuring ternary complex formation was used. […] Thus, whether PROTAC-induced PPIs could be monitored in a complex cellular environment using CETSA was examined. […]

The target of a further experiment is T2, p38δ (Homo sapiens, UniProt O15264).
T2 construct: endogenous in cells; host or cells: MDA-MB-231 (intact cells for degradation; cleared cell lysate for CETSA)
T2 sequence (O15264 1-365): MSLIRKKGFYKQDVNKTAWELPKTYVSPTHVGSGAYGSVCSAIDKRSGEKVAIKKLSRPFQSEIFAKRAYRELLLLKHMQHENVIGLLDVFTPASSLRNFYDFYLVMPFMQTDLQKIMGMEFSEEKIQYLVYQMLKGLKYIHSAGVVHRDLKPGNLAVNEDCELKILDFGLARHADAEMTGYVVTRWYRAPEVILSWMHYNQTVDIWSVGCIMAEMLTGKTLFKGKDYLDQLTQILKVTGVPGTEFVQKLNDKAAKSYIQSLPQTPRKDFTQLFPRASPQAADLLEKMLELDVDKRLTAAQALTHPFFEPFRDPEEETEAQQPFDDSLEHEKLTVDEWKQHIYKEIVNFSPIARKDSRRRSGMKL
The experiment can be described thus: Cellular thermal shift assay (CETSA), MDA-MB-231 cell lysate. The format is cell-based. Particulars: 100 μM, 30 minutes, 51-55° C., vs DMSO. The method, then: FIGS. 17A and 17B. […] (A) Cellular thermal shift assay (CETSA) was conducted in MDA-MB-231 cells as a means to monitor cellular target engagement. Cell lysate was incubated with either vehicle (DMSO), exemplary compound 50 (100 μM), or exemplary compound 46 (100 μM) for 30 minutes prior to melting at the indicated temperatures. Assay was performed in duplicate and western blots of p38δ and α-tubulin (negative control) are shown. (B) Raw band intensities from (A) were measured, averaged, and reported (with SD) with increasing temperature (51-55° C.) from left-to-right. Top: p38δ CETSA analysis. […] Bottom: α-tubulin CETSA analysis.
as §1
CETSA protocol was adapted from (Mateus A, Maatta T A, & Savitski M M (2016) Thermal proteome profiling: unbiased assessment of protein state through heat-induced stability changes. Proteome Sci 15:13). […] After cooling, samples were spun down for 20 minutes (14,000×g at 4° C.) and the supernatant (soluble fraction) was analyzed by SDS-PAGE and immunoblotted for p38δ and alpha-tubulin (negative control).

The structures appear in SMILES notation.

T1 sequence (P40337 whole entry, one chain of several): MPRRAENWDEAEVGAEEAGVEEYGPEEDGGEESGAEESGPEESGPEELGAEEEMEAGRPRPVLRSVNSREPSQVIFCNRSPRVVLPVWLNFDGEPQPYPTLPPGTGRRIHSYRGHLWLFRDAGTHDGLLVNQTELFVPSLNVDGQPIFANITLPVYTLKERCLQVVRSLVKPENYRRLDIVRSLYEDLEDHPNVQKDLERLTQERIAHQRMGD
T1 sequence (Q15370 whole entry partner, one chain of several): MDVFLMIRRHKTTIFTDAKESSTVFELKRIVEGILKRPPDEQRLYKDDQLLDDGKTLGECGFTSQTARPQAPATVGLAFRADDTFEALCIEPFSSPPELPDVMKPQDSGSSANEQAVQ
T1 sequence (Q15369 whole entry partner, one chain of several): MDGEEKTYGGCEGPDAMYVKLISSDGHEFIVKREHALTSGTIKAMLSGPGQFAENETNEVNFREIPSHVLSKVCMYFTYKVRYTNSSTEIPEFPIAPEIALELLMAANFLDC

For `COc1cc2c(Oc3ccc(NC(=O)C4(C(=O)Nc5ccc(F)cc5)CC4)cc3F)ccnc2cc1OCCOCCOCCOc1cc(-c2scnc2C)ccc1CNC(=O)[C@@H]1C[C@@H](O)CN1C(=O)[C@H](C(C)C)N1Cc2ccccc2C1=O` [compound 46], the “enrichment of endogenous p38δ from whole cell lysate on GST-VBC bait” value on endogenous p38δ was “strongly enrich for endogenous p38δ in a dose-dependent manner”. At p38δ, the “thermal shift in the p38δ melting profile” value is reported as “more pronounced at each melting temperature tested”.

With `COc1cc2c(Oc3ccc(NC(=O)C4(C(=O)Nc5ccc(F)cc5)CC4)cc3F)ccnc2cc1OCCCCOCCCCOCC(=O)N[C@H](C(=O)N1C[C@H](O)C[C@H]1C(=O)NCc1ccc(-c2scnc2C)cc1)C(C)(C)C` [compound 50, N-(3-fluoro-4-((7-(4-(4-(2-(((S)-1-((2S,4R)-4-hydroxy-2-((4-(4-methylthiazol-5-yl)benzyl)carbamoyl)pyrrolidin-1-yl)-3,3-dimethyl-1-oxobutan-2-yl)amino)-2-oxoethoxy)butoxy)buto-xy)-6-methoxyquinolin-4-yl)oxy)phenyl)-N-(4-fluorophenyl)cyclopropane-1,1-dicarboxa-mide], the “enrichment of endogenous p38δ from whole cell lysate on GST-VBC bait” value at endogenous p38δ is “greatly reduced”. Also, the “thermal shift in the p38δ melting profile” value at p38δ is recorded as “small, but statistically-significant (p=0.0121) thermal shift”.
